Measured values from patent US9290503B2, “Tricyclic compound derivatives useful in the treatment of neoplastic diseases, inflammatory disorders and immunomodulatory disorders” (CHEMBRIDGE CORPORATION, priority 2006, dated 2016).

Tests used:
Type in all cases: cell-based
[1] = target: T1, IGF1 receptor (Homo sapiens, UniProt P08069); assay: ELISA-based assay of IGF1 receptor autophosphorylation inhibition in cells; details: MCF7 cells, read-out: MCF7 IGF1R Phosphorylation IC50
T1 construct: MCF7 human breast cancer cells expressing IGF1 receptor; endogenous in cells; host or cells: MCF7 human breast cancer cells
Protocol: In another embodiment, compounds that interact with the IGF1R kinase domain are tested in a cell-based assay system. In accordance with this embodiment, cells expressing a full-length IGF1 receptor or a fragment thereof containing the IGF1R kinase domain, are contacted with a candidate or a control compound and the ability of the compound to block tyrosine kinase activity of IGF1R within a cell is determined. This assay may be used to screen a single compound or a large library of candidate compounds. […] The ability of the candidate compound to inhibit IGF1R kinase activity can be determined by methods known to those skilled in the art. For example, the inhibition can be determined by ELISA-type assay or Western blot analysis with cell lysates or immunoprecipitated IGF1R receptor using various anti-IGF1R and anti-phosphotyrosine antibodies.
In general, cells expressing IGF1R are treated with modulators (i.e., inhibitors or activators) of IGF1R kinase activity and cell lysates are produced from these treated cells. IGF1Rs are isolated from the lysate by immunoprecipitation and analyzed for phosphotyrosine content. Alternatively, or in addition, cellular protein substrates phosphorylated by IGFR may be immunoprecipitated from the lysates and their degree of tyrosine phosphorylation determined. […]

[2] = system: MM1s; assay: Cell proliferation assay, MTT, MM1s; details: Homo sapiens, MM1.S, 72 h, standard 3-day proliferation assay
Text: (§1) IGF1R and other tyrosine kinase inhibitors can inhibit the proliferation of certain cancer cell lines indicating their possible therapeutic utility for treating the corresponding cancer types. Cancer cell lines of interest and control normal lines, including CHO, HEK293, BA/F3, COLO205, PC3, DU145, MCF7, Panc1, ACHN, Hep G2, H460, K562, TT, U87-MG, CAOV-3, SK-MEL5, Karpas 299 and human multiple myeloma cell lines H929, MM1s, MM1r, UTMC2, CPM2, KMS11, My5, KMS12PE, My7, JJN3, KMS18, U266, SKMM2, RPMI-8226 are plated in white, clear-bottomed 384-well cell culture plates at 2500-5000 cells per well and supplied with dilutions of tested compounds After a desired period of time (typically 3 days), the number of viable cells is quantitated by using Cell Titer-Glo Luminescent Cell Viability Assay (Promega), a cell proliferation assay system based on detection of total amount of ATP present as a measure of cell metabolic activity. The plated cells are mixed with the Cell Titer-Glo developing reagent and counted in a luminescence multiwell plate reader according to the standard manufacturer's protocol to generate IC50 curves for cell proliferation inhibition. […] Alternatively, viable cells are quantitated by using the conventional colorimetric MTT assay. […] The formazan is then solubilized, and the concentration determined by optical density at 570 nm. […]

[3] = system: KMS18; assay: Cell proliferation assay, MTT, KMS18; details: Homo sapiens, KMS18, 72 h, standard 3-day proliferation assay
Text: as §1

[4] = system: CPM2; assay: Cell proliferation assay, MTT, CPM2; details: Homo sapiens, 72 h, standard 3-day proliferation assay
Text: as §1

[5] = system: My7; assay: Cell proliferation assay, MTT, My7; details: Homo sapiens, 72 h, standard 3-day proliferation assay
Text: as §1

[6] = system: UTMC2; assay: Cell proliferation assay, MTT, UTMC2; details: Homo sapiens, UTMC2, 72 h, standard 3-day proliferation assay
Text: as §1

[7] = system: KMS12PE; assay: Cell proliferation assay, MTT, KMS12PE; details: Homo sapiens, KMS-12-PE, 72 h, standard 3-day proliferation assay
Text: as §1

[8] = system: MM1r; assay: Cell proliferation assay, MTT, MM1r; details: Homo sapiens, MM.1R, 72 h, standard 3-day proliferation assay
Text: as §1

[9] = system: H929; assay: Cell proliferation assay, MTT, H929; details: Homo sapiens, NCI-H929, 72 h, standard 3-day proliferation assay
Text: as §1

[10] = system: RPMI-8226; assay: Cell proliferation assay, MTT, RPMI-8226; details: Homo sapiens, RPMI-8226, 72 h, standard 3-day proliferation assay
Text: as §1

[11] = system: KMS11; assay: Cell proliferation assay, MTT, KMS11; details: Homo sapiens, KMS-11, 72 h, standard 3-day proliferation assay
Text: as §1

[12] = system: U266; assay: Cell proliferation assay, MTT, U266; details: Homo sapiens, U-266, 72 h, standard 3-day proliferation assay
Text: as §1

[13] = system: CHO (chinese hamster ovary); assay: Cell proliferation assay, MTT, CHO; details: Cricetulus griseus, 72 h, standard 3-day proliferation assay
Text: as §1

[14] = system: JJN3; assay: Cell proliferation assay, MTT, JJN3; details: Homo sapiens, JJN-3, 72 h, standard 3-day proliferation assay
Text: as §1

[15] = system: My5; assay: Cell proliferation assay, MTT, My5; details: Homo sapiens, 72 h, standard 3-day proliferation assay
Text: as §1

[16] = system: HEK293 (human normal embryonic kidney); assay: Cell proliferation assay, MTT, HEK293; details: HEK293, 72 h, standard 3-day proliferation assay, read-out: HEK IC50
Text: as §1

[17] = system: SKMM2; assay: Cell proliferation assay, MTT, SKMM2; details: Homo sapiens, SK-MM-2, 72 h, standard 3-day proliferation assay
Text: as §1

T1 sequence (P08069 31-1367): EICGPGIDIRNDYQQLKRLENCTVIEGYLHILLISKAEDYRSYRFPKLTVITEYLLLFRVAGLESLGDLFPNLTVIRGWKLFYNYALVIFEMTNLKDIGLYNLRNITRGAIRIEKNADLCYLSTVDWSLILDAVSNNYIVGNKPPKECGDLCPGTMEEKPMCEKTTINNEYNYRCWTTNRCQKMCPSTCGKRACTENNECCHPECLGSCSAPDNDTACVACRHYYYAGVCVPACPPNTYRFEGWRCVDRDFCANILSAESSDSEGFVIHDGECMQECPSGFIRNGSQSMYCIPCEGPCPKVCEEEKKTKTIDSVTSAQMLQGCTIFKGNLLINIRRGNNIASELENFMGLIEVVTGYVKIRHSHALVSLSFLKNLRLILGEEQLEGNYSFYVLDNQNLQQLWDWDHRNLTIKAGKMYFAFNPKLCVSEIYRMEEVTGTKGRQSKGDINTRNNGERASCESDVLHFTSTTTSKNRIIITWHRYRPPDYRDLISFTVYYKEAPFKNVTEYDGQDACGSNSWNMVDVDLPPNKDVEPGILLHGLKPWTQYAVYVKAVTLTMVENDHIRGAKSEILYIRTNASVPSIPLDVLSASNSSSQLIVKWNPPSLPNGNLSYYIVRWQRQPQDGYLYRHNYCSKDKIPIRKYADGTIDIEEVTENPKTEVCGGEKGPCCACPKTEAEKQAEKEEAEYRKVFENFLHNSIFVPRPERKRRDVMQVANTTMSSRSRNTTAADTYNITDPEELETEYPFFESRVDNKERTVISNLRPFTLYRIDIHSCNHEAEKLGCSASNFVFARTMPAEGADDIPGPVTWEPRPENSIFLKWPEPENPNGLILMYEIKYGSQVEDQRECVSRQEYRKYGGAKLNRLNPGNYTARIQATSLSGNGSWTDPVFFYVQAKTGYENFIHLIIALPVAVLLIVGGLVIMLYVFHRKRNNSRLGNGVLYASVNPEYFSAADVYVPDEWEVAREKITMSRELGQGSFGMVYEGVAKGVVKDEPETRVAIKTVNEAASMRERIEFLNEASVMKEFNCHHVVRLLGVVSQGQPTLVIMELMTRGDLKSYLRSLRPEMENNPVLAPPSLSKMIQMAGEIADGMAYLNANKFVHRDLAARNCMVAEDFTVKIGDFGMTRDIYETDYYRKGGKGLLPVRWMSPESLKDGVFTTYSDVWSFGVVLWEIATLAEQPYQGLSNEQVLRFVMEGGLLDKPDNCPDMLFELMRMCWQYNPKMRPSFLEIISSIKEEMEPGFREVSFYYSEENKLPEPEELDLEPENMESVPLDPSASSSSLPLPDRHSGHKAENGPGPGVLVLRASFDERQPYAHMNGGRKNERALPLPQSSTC

| IC50 [1] [µM] | IC50 [2] [µM] | IC50 [8] [µM] | IC50 [9] [µM] | IC50 [10] [µM] | IC50 [12] [µM] | IC50 [17] [µM] | SMILES | IC50 [3] [µM] | IC50 [4] [µM] | IC50 [5] [µM] | IC50 [6] [µM] | IC50 [7] [µM] | IC50 [11] [µM] | IC50 [13] [µM] | IC50 [14] [µM] | IC50 [15] [µM] | IC50 [16] [µM] |
| --- | --- | --- | --- | --- | --- | --- | --- | --- | --- | --- | --- | --- | --- | --- | --- | --- | --- |
| > 15 |  |  |  |  |  |  | CN1CCC(N2C(=O)c3cc4nc(-c5c(NCC(O)c6ccncc6)cc[nH]c5=O)[nH]c4cc3C2=O)CC1 (stereo not drawn) [compound 7] |  |  |  |  |  |  |  |  |  |  |
|  | 1 to 5 | 1 to 5 | 1 to 5 | 5 to 20 | 1 to 5 | 5 to 20 | CC(=O)CCN1CCC(N2Cc3cc4nc(-c5c(NCC(=O)COc6ccc(C)cc6C)cc[nH]c5=O)[nH]c4cc3C2=O)CC1 | 5 to 20 | 1 to 5 | 5 to 20 | < 0.5 | 5 to 20 | 5 to 20 | ≥ 20 | 5 to 20 | 5 to 20 | ≥ 20 |
|  | 0.5 to 1 | 1 to 5 | 0.5 to 1 | 5 to 20 | 1 to 5 | 1 to 5 | Cc1ccc(OCC(=O)CNc2cc[nH]c(=O)c2C2Nc3cc4c(cc3N2)C(=O)N(C2CCN(CCS(C)(=O)=O)CC2)C4)c(C)c1 (stereo not drawn) | 5 to 20 | 1 to 5 | 1 to 5 | < 0.5 | 1 to 5 | 1 to 5 | ≥ 20 | 1 to 5 | 5 to 20 | ≥ 20 |
